Experimental data from patent publication US20090197880A1 (Genelabs Technologies, Inc., priority 2007, published 2009).

Test: HCV replicon assay (luciferase) in ET (Huh-lucubineo-ET) cell line
Assay type: cell-based
Details: Hepatitis C virus; tested at 10 μM; inhibition of replication relative to no compound control; ET replicon cells, luciferase 48-72 hours; read-out: % inhition at 10 μM
Source text: A cell line, ET (Huh-lucubineo-ET) was used for screening of compounds, or pharmaceutically acceptable salts or solvates, described herein for inhibition of HCV RNA dependent RNA polymerase. The ET cell line was stably transfected with RNA transcripts harboring a I389luc-ubi-neo/NS3-3′/ET; replicon with firefly luciferase-ubiquitin-neomycin phosphotransferase fusion protein and EMCV-IRES driven NS3-5B polyprotein containing the cell culture adaptive mutations (E1202G; T1280I; K1846T) (Krieger at al, 2001 and unpublished). The ET cells were grown in DMEM, supplemented with 10% fetal calf serum, 2 mM Glutamine, Penicillin (100 IU/mL)/Streptomycin (100 μg/mL), 1× nonessential amino acids, and 250 μg/mL G418 (“Geneticin”). They were all available through Life Technologies (Bethesda, Md.). The cells were plated at 0.5−1.0×10^4 cells/well in the 96 well plates and incubated for 24 hrs before adding the test compounds. […] Luciferase activity was measured 48-72 hours later by adding a lysis buffer and the substrate (Catalog number Glo-lysis buffer E2661 and Bright-Glo luciferase system E2620 Promega, Madison, Wis.). Cells should not be too confluent during the assay. Percent inhibition of replication was plotted relative to no compound control. Under the same condition, cytotoxicity of the compounds was determined using cell proliferation reagent, WST-1 (Roche, Germany). The compounds showing antiviral activities, but no significant cytotoxicities were chosen to determine the EC50 and TC50, the effective concentration and toxic concentration at which 50% of the maximum inhibition is observed. For these determinations, 6 dilutions of each compound were used. Compounds were typically diluted 3 fold to span a concentration range of 250 fold. EC50 and similarly TC50 values were calculated by fitting % inhibition at each concentration to the following equation:
% inhibition=100%/[(EC50/[I])^b+1]
where b is Hill's coefficient.

In order of falling inhibition at 10 µM:
1. CCCCc1ccc(-c2cc(Cn3cc4nc(-c5cccc(F)c5F)nc-4cn3)on2)c(C(F)(F)F)c1 [Compound 186, 5-[3-(4-Butyl-2-trifluoromethyl-phenyl)-isoxazol-5-ylmethyl]-2-(2,3-difluoro-phenyl)-5H-imidazo[4,5-d]pyridazine]  100%
2. Fc1cccc(-c2nc3cnn(Cc4cc(-c5ccc(OCc6cccnc6)cc5)no4)cc-3n2)c1F [Compound 179, 2-(2,3-Difluoro-phenyl)-5-{3-[4-(pyridin-3-ylmethoxy)-phenyl]-isoxazol-5-ylmethyl}-5H-imidazo[4,5-d]pyridazine]  99.9%
3. CC(C)Cc1ccc(-c2cc(Cn3cc4nc(-c5cccc(F)c5F)nc-4cn3)on2)cc1 [Compound 190, 2-(2,3-Difluoro-phenyl)-5-[3-(4-isobutyl-phenyl)-isoxazol-5-ylmethyl]-5H-imidazo[4,5-d]pyridazine]  99.9%
4. Fc1cccc(-c2nc3cnn(Cc4cc(-c5ccc(OC(F)(F)C(F)F)cc5)no4)cc-3n2)c1F [Compound 175, 2-(2,3-Difluoro-phenyl)-5-{3-[4-(1,1,2,2-tetrafluoro-ethoxy)-phenyl]-isoxazol-5-ylmethyl}-5H-imidazo[4,5-d]pyridazine]  99.8%
5. Fc1cccc(-c2nc3cnn(Cc4cc(-c5ccc(OC(F)F)cc5)no4)cc-3n2)c1F [Compound 176, 5-[3-(4-Difluoromethoxy-phenyl)-isoxazol-5-ylmethyl]-2-(2,3-difluoro-phenyl)-5H-imidazo[4,5-d]pyridazine]  99.8%
6. CCCCCc1ccc(-c2cc(Cn3cc4nc(-c5cccc(F)c5F)nc-4cn3)on2)cc1 [Compound 191, 2-(2,3-Difluoro-phenyl)-5-[3-(4-pentyl-phenyl)-isoxazol-5-ylmethyl]-5H-imidazo[4,5-d]pyridazine]  99.8%
7. COc1ccc(-c2cc(Cn3cc4nc(-c5cccc(F)c5F)nc-4cn3)on2)c(C(F)(F)F)c1 [Compound 174, 2-(2,3-Difluoro-phenyl)-5-[3-(4-methoxy-2-trifluoromethyl-phenyl)-isoxazol-5-ylmethyl]-5H-imidazo[4,5-d]pyridazine]  99.7%
8. Cc1ccc(-c2cc(Cn3cc4nc(-c5cccc(F)c5F)nc-4cn3)on2)cc1 [Compound 187, 2-(2,3-Difluoro-phenyl)-5-(3-p-tolyl-isoxazol-5-ylmethyl)-5H-imidazo[4,5-d]pyridazine]  99.7%
9. Cc1cc(OC(F)(F)F)ccc1-c1cc(Cn2cc3nc(-c4cccc(F)c4F)nc-3cn2)on1 [Compound 177, 2-(2,3-Difluoro-phenyl)-5-[3-(2-methyl-4-trifluoromethoxy-phenyl)-isoxazol-5-ylmethyl]-5H-imidazo[4,5-d]pyridazine]  99.6%
10. Fc1cc(-c2cc(Cn3cc4nc(-c5cccc(F)c5F)nc-4cn3)on2)ccc1OC(F)(F)F [Compound 168, 2-(2,3-Difluoro-phenyl)-5-[3-(3-fluoro-4-trifluoromethoxy-phenyl)-isoxazol-5-ylmethyl]-5H-imidazo[4,5-d]pyridazine]  99.2%
11. COCCOc1ccc(-c2cc(Cn3cc4nc(-c5cccc(F)c5F)nc-4cn3)on2)cc1 [Compound 195]  98.8%
12. Fc1cccc(-c2nc3cnn(Cc4cc(-c5ccc(OCc6ccccc6)cc5)no4)cc-3n2)c1F [Compound 173, 5-[3-(4-Benzyloxy-phenyl)-isoxazol-5-ylmethyl]-2-(2,3-difluoro-phenyl)-5H-imidazo[4,5-d]pyridazine]  98.7%
13. Fc1cccc(-c2nc3cnn(Cc4cc(-c5ccc(COc6cccnc6)cc5)no4)cc-3n2)c1F [Compound 178, 2-(2,3-Difluoro-phenyl)-5-{3-[4-(pyridin-3-yloxymethyl)-phenyl]-isoxazol-5-ylmethyl}-5H-imidazo[4,5-d]pyridazine]  98.7%
14. Fc1cccc(-c2nc3cnn(Cc4cc(-c5ccc(OC(F)(F)C(F)C(F)(F)F)cc5)no4)cc-3n2)c1F (stereo not drawn) [Compound 170, 2-(2,3-Difluoro-phenyl)-5-{3-[4-(1,1,2,3,3,3-hexafluoro-propoxy)-phenyl]-isoxazol-5-ylmethyl}-5H-imidazo[4,5-d]pyridazine]  97.9%
15. Fc1cccc(-c2nc3cnn(Cc4cc(-c5ccc(OCc6ccccn6)cc5)no4)cc-3n2)c1F [Compound 172, 2-(2,3-Difluoro-phenyl)-5-{3-[4-(pyridin-2-ylmethoxy)-phenyl]-isoxazol-5-ylmethyl}-5H-imidazo[4,5-d]pyridazine]  95.4%
16. Fc1cccc(-c2nc3cnn(Cc4cc(-c5ccc6c(c5)OC(F)(F)O6)no4)cc-3n2)c1F [Compound 167, 5-[3-(2,2-Difluoro-benzo[1,3]dioxol-5-yl)-isoxazol-5-ylmethyl]-2-(2,3-difluoro-phenyl)-5H-imidazo[4,5-d]pyridazine]  93.1%
17. COc1ccc(-c2cc(Cn3cc4nc(-c5cccc(F)c5F)nc-4cn3)on2)c(C)c1 [Compound 171, 2-(2,3-Difluoro-phenyl)-5-[3-(4-methoxy-2-methyl-phenyl)-isoxazol-5-ylmethyl]-5H-imidazo[4,5-d]pyridazine]  91.5%
18. Fc1cccc(-c2nc3cnn(Cc4cc(-c5ccc(OC(F)F)cc5OC(F)F)no4)cc-3n2)c1F [Compound 169, 5-[3-(2,4-Bis-difluoromethoxy-phenyl)-isoxazol-5-ylmethyl]-2-(2,3-difluoro-phenyl)-5H-imidazo[4,5-d]pyridazine]  83.6%
19. Cc1csc(-c2cc(Cn3cc4nc(-c5cccc(F)c5F)nc-4cn3)on2)n1 [Compound 180, 2-(2,3-Difluoro-phenyl)-5-[3-(4-methyl-thiazol-2-yl)-isoxazol-5-ylmethyl]-5H-imidazo[4,5-d]pyridazine]  83.3%
20. OCCCOc1ccc(-c2cc(Cn3cc4nc(-c5cccc(F)c5F)nc-4cn3)on2)cc1 [Compound 193, 3-(4-{5-[2-(2,3-difluoro-phenyl)-imidazo[4,5-d]pyridazin-5-ylmethyl]-isoxazol-3-yl}-phenoxy)-propan-1-ol]  76.3%
21. COc1ccc(-c2cc(Cn3cc4nc(-c5cccc(F)c5F)nc-4cn3)on2)c(O)c1 [Compound 166, 2-{5-[2-(2,3-Difluoro-phenyl)-imidazo[4,5-d]pyridazin-5-ylmethyl]-isoxazol-3-yl}-5-methoxy-phenol]  70.7%
22. CN1CCN(c2ccc(-c3cc(Cn4cc5nc(-c6cccc(F)c6F)nc-5cn4)on3)cc2)CC1 [Compound 194, 2-(2,3-Difluoro-phenyl)-5-{3-[4-(4-methyl-piperazin-1-yl)-phenyl]-isoxazol-5-ylmethyl}-5H-imidazo[4,5-d]pyridazine]  57.5%
23. COC(=O)CCCOc1ccc(-c2cc(Cn3cc4nc(-c5cccc(F)c5F)nc-4cn3)on2)cc1 [Compound 192, 4-(4-{5-[2-(2,3-difluoro-phenyl)-imidazo[4,5-d]pyridazin-5-ylmethyl]-isoxazol-3-yl}-phenoxy)-butyric acid methyl ester]  54.1%
24. Cc1nc(-c2cc(Cn3cc4nc(-c5cccc(F)c5F)nc-4cn3)on2)c(C)o1 [Compound 185, 2-(2,3-Difluoro-phenyl)-5-[3-(2,5-dimethyl-oxazol-4-yl)-isoxazol-5-ylmethyl]-5H-imidazo[4,5-d]pyridazine]  47.8%
